The source of these data is patent US10894784B2, “Heteroarylbenzimidazole compounds” (BAYER PHARMA AKTIENGESELLSCHAFT, priority 2015, dated 2021).

SMILES strings stand for the structures. pIC50: −log10 of the molar value.

The assay deals with TBK1 (Homo sapiens (Human), UniProt Q9UHD2). The assay is described as follows: TBK1 low ATP kinase assay (in vitro assay 1). Type of assay: biochemical. Particulars: in vitro assay 1, read-out: TBK1 low ATP kinase assay IC50.
Sequence of TBK1 (Q9UHD2 whole entry): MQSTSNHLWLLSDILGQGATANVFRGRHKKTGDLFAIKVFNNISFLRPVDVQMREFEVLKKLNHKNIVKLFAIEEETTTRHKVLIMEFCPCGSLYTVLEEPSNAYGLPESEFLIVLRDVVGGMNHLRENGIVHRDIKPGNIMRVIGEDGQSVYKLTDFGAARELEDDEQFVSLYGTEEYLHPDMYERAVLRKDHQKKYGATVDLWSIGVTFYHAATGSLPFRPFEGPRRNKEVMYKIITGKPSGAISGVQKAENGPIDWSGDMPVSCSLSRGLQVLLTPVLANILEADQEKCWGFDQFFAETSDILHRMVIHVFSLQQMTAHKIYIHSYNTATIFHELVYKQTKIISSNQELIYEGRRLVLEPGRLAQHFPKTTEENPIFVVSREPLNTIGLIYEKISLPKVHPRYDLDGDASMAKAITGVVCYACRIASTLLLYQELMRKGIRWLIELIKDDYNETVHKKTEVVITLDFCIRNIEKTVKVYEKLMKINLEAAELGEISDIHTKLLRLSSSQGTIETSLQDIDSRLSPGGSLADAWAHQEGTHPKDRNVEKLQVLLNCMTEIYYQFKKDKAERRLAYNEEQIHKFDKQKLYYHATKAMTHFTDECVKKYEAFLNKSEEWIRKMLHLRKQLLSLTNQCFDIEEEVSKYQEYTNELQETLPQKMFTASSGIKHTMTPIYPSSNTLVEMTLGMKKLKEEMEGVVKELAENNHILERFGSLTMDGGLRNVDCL
Usually pIC50 stands for the negative decadic logarithm of the IC50, by convention in mol/L. Regarding `O=C(CC(F)(F)F)N1CCN(Cc2ccnc(Nc3nc4ccc(-c5cc(OCC6CC6)ncn5)cc4[nH]3)c2)CC1` [Example 80.02, 1-(4-{[2-({6-[6-(cyclopropylmethoxy)pyrimidin-4-yl]-1H-benzimidazol-2-yl}amino)pyridin-4-yl]methyl}piperazin-1-yl)-3,3,3-trifluoropropan-1-one], the pIC50 was 8.35.
As for `COc1cncnc1-c1ccc2nc(Nc3cc(CN4CCN(S(=O)(=O)CCC(F)(F)F)CC4)ccn3)[nH]c2c1` [Example 35.01.09, 6-(5-methoxypyrimidin-4-yl)-N-[4-({4-[(3,3,3-trifluoropropyl)sulfonyl]piperazin-1-yl}methyl)pyridin-2-yl]-1H-benzimidazol-2-amine], the pIC50 is 7.39.
The value for `O=C(C1CCC1)N1CCN(Cc2ccnc(Nc3nc4ccc(-c5ccnc(C(F)(F)F)n5)cc4[nH]3)c2)CC1` [Example 27.02, cyclobutyl(4-{[2-({6-[2-(trifluoromethyl)pyrimidin-4-yl]-1H-benzimidazol-2-yl}amino)pyridin-4-yl]methyl}piperazin-1-yl)methanone] was 6.66.
To `O=C(CC(F)(F)F)N1CCN(Cc2ccnc(Nc3nc4ccc(-c5cc(OCC6CCC6)ncn5)cc4[nH]3)c2)CC1` [Example 159.02, 1-(4-{[2-({6-[6-(cyclobutylmethoxy)pyrimidin-4-yl]-1H-benzimidazol-2-yl}amino)pyridin-4-yl]methyl}piperazin-1-yl)-3,3,3-trifluoropropan-1-one] belongs 7.82; to `Cc1cc(-c2ccc3nc(Nc4cc(CN5CCN(C(=O)CC(F)(F)F)CC5)ccn4)[nH]c3c2)cc(C#N)n1` [Example 136.02, 6-methyl-4-{2-[(4-{[4-(3,3,3-trifluoropropanoyl)piperazin-1-yl]methyl}pyridin-2-yl)amino]-1H-benzimidazol-6-yl}pyridine-2-carbonitrile], 7.42.
The value for `Cc1cc(-c2ccc3nc(Nc4cc(CN5CCN(C(=O)CC6CC6)CC5)ccn4)[nH]c3c2)ccn1` [Example 01.04, 2-cyclopropyl-1-{4-[(2-{[6-(2-methylpyridin-4-yl)-1H-benzimidazol-2-yl]amino}pyridin-4-yl)methyl]piperazin-1-yl}ethanone] was 7.26; that for `Cc1nccc(-c2ccc3nc(Nc4cc(C(C)N5CCN(C(=O)C6CCC6)CC5)ccn4)[nH]c3c2)n1` (single isomer, unassigned) [Example 24.05.02.A, cyclobutyl{4-[(1R or 1S)-1-(2-{[6-(2-methylpyrimidin-4-yl)-1H-benzimidazol-2-yl]amino}pyridin-4-yl)ethyl]piperazin-1-yl}methanone] was 7.96.
On to `CC(c1ccnc(Nc2nc3ccc(-c4cc(N5CCC5)ncn4)cc3[nH]2)c1)N1CCN(C(=O)CC(F)(F)F)CC1` (single isomer, unassigned) [Example 115.02, 1-(4-{(1R or 1S)-1-[2-({6-[6-(azetidin-1-yl)pyrimidin-4-yl]-1H-benzimidazol-2-yl}amino)pyridin-4-yl]ethyl}piperazin-1-yl)-3,3,3-trifluoropropan-1-one], for which the pIC50 is 9.12.
To `CC(c1ccnc(Nc2nc3ccc(-c4cc(OCC(C)(F)F)ncn4)cc3[nH]2)c1)N1CCN(C(=O)CC(F)(F)F)CC1` (single isomer, unassigned) [Example 165.02, 1-(4-{(1R or 1S)-1-[2-({6-[6-(2,2-difluoropropoxy)pyrimidin-4-yl]-1H-benzimidazol-2-yl}amino)pyridin-4-yl]ethyl}piperazin-1-yl)-3,3,3-trifluoropropan-1-one] belongs 8.77; to `COc1cncnc1-c1ccc2nc(Nc3cc(C(C)N4CCN(C(=O)C5CCC5)CC4)ccn3)[nH]c2c1` (racemic) [Example 35.02.04, (rac)-cyclobutyl{4-[1-(2-{[6-(5-methoxypyrimidin-4-yl)-1H-benzimidazol-2-yl]amino}pyridin-4-yl)ethyl]piperazin-1-yl}methanone], 7.98.
The value for `COCCCNc1cc(-c2ccc3nc(Nc4cc(CN5CCN(C(=O)CC(F)(F)F)CC5)ccn4)[nH]c3c2)ncn1` [Example 90.02, 3,3,3-trifluoro-1-[4-({2-[(6-{6-[(3-methoxypropyl)amino]pyrimidin-4-yl}-1H-benzimidazol-2-yl)amino]pyridin-4-yl}methyl)piperazin-1-yl]propan-1-one] was 7.96; that for `Cn1ccc(-c2ccc3nc(Nc4cc(CN5CCN(C(=O)C6CC6)CC5)ccn4)[nH]c3c2)n1` [Example 40.03, cyclopropyl{4-[(2-{[6-(1-methyl-1H-pyrazol-3-yl)-1H-benzimidazol-2-yl]amino}pyridin-4-yl)methyl]piperazin-1-yl}methanone] was 6.01; that for `CC(=O)N1CCN(Cc2ccnc(Nc3nc4ccc(-c5nc(C)no5)cc4[nH]3)c2)CC1` [Example 101.06, 1-{4-[(2-{[6-(3-methyl-1,2,4-oxadiazol-5-yl)-1H-benzimidazol-2-yl]amino}pyridin-4-yl)methyl]piperazin-1-yl}ethanone] was 6.00.
The value for `COc1ccncc1-c1ccc2nc(Nc3cc(CN4CCN(C(=O)C5CCC5)CC4)ccn3)[nH]c2c1` [Example 14.01, cyclobutyl{4-[(2-{[6-(4-methoxypyridin-3-yl)-1H-benzimidazol-2-yl]amino}pyridin-4-yl)methyl]piperazin-1-yl}methanone] was 6.71; that for `CC(C)(C)OC(=O)N1CCN(Cc2ccnc(Nc3nc4ccc(-c5ccnc(N6CCCC6)n5)cc4[nH]3)c2)CC1` [Example 177.01, tert-butyl 4-{[2-({6-[2-(pyrrolidin-1-yl)pyrimidin-4-yl]-1H-benzimidazol-2-yl}amino)pyridin-4-yl]methyl}piperazine-1-carboxylate] was 6.64.
Take `CC(C)(C)OC(=O)N1CCN(Cc2ccnc(Nc3nc4ccc(-c5cc(OCC6CCC6)ncn5)cc4[nH]3)c2)CC1` [Example 159.01, tert-butyl 4-{[2-({6-[6-(cyclobutylmethoxy)pyrimidin-4-yl]-1H-benzimidazol-2-yl}amino)pyridin-4-yl]methyl}piperazine-1-carboxylate]: the negative-log IC50 (pIC50) is 6.51.
To `O=C(C1CC1)N1CCN(Cc2ccnc(Nc3nc4ccc(-c5ccn(CC6CC6)c(=O)c5)cc4[nH]3)c2)CC1` [Example 44.02, 4-{2-[(4-{[4-(cyclopropylcarbonyl)piperazin-1-yl]methyl}pyridin-2-yl)amino]-1H-benzimidazol-6-yl}-1-(cyclopropylmethyl)pyridin-2(1H)-one] belongs 7.18; to `CC(c1ccnc(Nc2nc3ccc(-c4cnn(CC5CC5)c4)c(Cl)c3[nH]2)c1)N1CCN(C(=O)C2CC2)CC1` (single isomer, unassigned) [Example 122.03, (4-{(1R or 1S)-1-[2-({7-chloro-6-[1-(cyclopropylmethyl)-1H-pyrazol-4-yl]-1H-benzimidazol-2-yl}amino)pyridin-4-yl]ethyl}piperazin-1-yl)(cyclopropyl)methanone], 8.96.
Consider `CC(c1ccnc(Nc2nc3ccc(-c4cnn(CC5CCC5)c4)c(Cl)c3[nH]2)c1)N1CCN(C(=O)C2CC2)CC1` (single isomer, unassigned) [Example 75.03, (4-{(1R or 1S)-1-[2-({7-chloro-6-[1-(cyclobutylmethyl)-1H-pyrazol-4-yl]-1H-benzimidazol-2-yl}amino)pyridin-4-yl]ethyl}piperazin-1-yl)(cyclopropyl)methanone], for which the negative logarithm of the IC50 (pIC50) is 9.06.
To `CC(c1ccnc(Nc2nc3ccc(-c4cc(C(F)(F)F)ncn4)c(F)c3[nH]2)c1)N1CCN(C(=O)CC(F)(F)F)CC1` (single isomer, unassigned) [Example 173.02, 3,3,3-trifluoro-1-(4-{(1R or 1S)-1-[2-({7-fluoro-6-[6-(trifluoromethyl)pyrimidin-4-yl]-1H-benzimidazol-2-yl}amino)pyridin-4-yl]ethyl}piperazin-1-yl)propan-1-one] belongs 7.11.
As to `Cc1nccc(-c2ccc3nc(Nc4cc(C(C)N5CCN(C(=O)CC6CC6)CC5)ccn4)[nH]c3c2)n1` (single isomer, unassigned) [Example 24.05.03.A, 2-cyclopropyl-1-{4-[(1R or 1S)-1-(2-{[6-(2-methylpyrimidin-4-yl)-1H-benzimidazol-2-yl]amino}pyridin-4-yl)ethyl]piperazin-1-yl}ethanone], the pIC50 is 7.34.
To `COCc1cc(-c2ccc3nc(Nc4cc(CN5CCN(C(=O)C6CC6)CC5)ccn4)[nH]c3c2)ncn1` [Example 79.02, cyclopropyl(4-{[2-({6-[6-(methoxymethyl)pyrimidin-4-yl]-1H-benzimidazol-2-yl}amino)pyridin-4-yl]methyl}piperazin-1-yl)methanone] belongs 8.32; to `CCOc1c(-c2ccncc2OC)ccc2nc(Nc3cc(CN4CCN(C(=O)C5CCC5)CC4)ccn3)[nH]c12` [Example 51.04, cyclobutyl{4-[(2-{[7-ethoxy-6-(3-methoxypyridin-4-yl)-1H-benzimidazol-2-yl]amino}pyridin-4-yl)methyl]piperazin-1-yl}methanone], 6.69.
To `CC(C)(C)OC(=O)N1CCN(Cc2ccnc(Nc3nc4ccc(-c5c(F)cncc5Cl)cc4[nH]3)c2)CC1` [Example 132.01, tert-butyl 4-[(2-{[6-(3-chloro-5-fluoropyridin-4-yl)-1H-benzimidazol-2-yl]amino}pyridin-4-yl)methyl]piperazine-1-carboxylate] belongs 6.74; to `COc1c(-c2ccc3nc(Nc4cc(CN5CCN(C(=O)C6CC6)CC5)ccn4)[nH]c3c2)ncnc1N(C)CC1CC1` [Example 110.02, cyclopropyl[4-({2-[(6-{6-[(cyclopropylmethyl)(methyl)amino]-5-methoxypyrimidin-4-yl}-1H-benzimidazol-2-yl)amino]pyridin-4-yl}methyl)piperazin-1-yl]methanone], 7.52; to `CN(C)c1cnc(-c2ccc3nc(Nc4cc(CN5CCN(C(=O)C6CC6)CC5)ccn4)[nH]c3c2)cn1` [Example 144.03, cyclopropyl(4-{[2-({6-[5-(dimethylamino)pyrazin-2-yl]-1H-benzimidazol-2-yl}amino)pyridin-4-yl]methyl}piperazin-1-yl)methanone], 6.36.
